From PubChem BioAssay (NCI)
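The compound was tested at five concentrations on cells cultured in 96-well plates, with a 48-hour exposure period. GI50 = concentration required for 50% inhibition of growth. TGI is the concentration that stops growth completely.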

Assays:
Assay in all cases: inhibition of tumour cell growth, NCI panel, 48 h
[1] = test system: HCC-2998 colon
[2] = test system: SW-620 colon
[3] = test system: NCI-H23 lung
[4] = test system: HCT-116 colon
[5] = test system: RXF 393 renal
[6] = test system: A498 renal
[7] = test system: MCF7 breast
[8] = test system: K-562 leukemia
[9] = test system: HOP-62 NSCLC
[10] = test system: SK-MEL-5 melanoma
[11] = test system: EKVX NSCLC
[12] = test system: NCI-H226 lung
[13] = test system: COLO 205 colon
[14] = test system: U251 CNS
[15] = test system: NCI-H460 lung
[16] = test system: NCI/ADR-RES ovarian
[17] = test system: CCRF-CEM leukemia
[18] = test system: TK-10 renal
[19] = test system: CAKI-1 renal
[20] = test system: UO-31 renal
[21] = test system: OVCAR-8 ovarian
[22] = test system: SK-OV-3 ovarian
[23] = test system: SNB-75 CNS
[24] = test system: SF-295 CNS
[25] = test system: T-47D breast
[26] = test system: SR leukemia
[27] = test system: PC-3 prostate
[28] = test system: A549 NSCLC
[29] = test system: SNB-19 CNS
[30] = test system: M14 melanoma
[31] = test system: ACHN renal
[32] = test system: IGROV1 ovarian
[33] = test system: MDA-MB-231 breast
[34] = test system: SK-MEL-2 melanoma
[35] = test system: SN12C renal
[36] = test system: OVCAR-4 ovarian
[37] = test system: HCT-15 colon
[38] = test system: MALME-3M melanoma
[39] = test system: UACC-62 melanoma
[40] = test system: HOP-92 NSCLC
[41] = test system: MOLT-4 leukemia
[42] = test system: RPMI-8226 leukemia
[43] = test system: DU-145 prostate
[44] = test system: 786-0 renal
[45] = test system: KM12 colon
[46] = test system: SF-268 CNS
[47] = test system: HS 578T breast
[48] = test system: OVCAR-5 ovarian
[49] = test system: SK-MEL-28 melanoma
[50] = test system: BT-549 breast
[51] = test system: OVCAR-3 ovarian
[52] = test system: UACC-257 melanoma
[53] = test system: LOX IMVI melanoma
[54] = test system: HL-60(TB) leukemia
[55] = test system: HT29 colon
[56] = test system: MDA-MB-435
[57] = test system: NCI-H522 lung
[58] = test system: SF-539 CNS

With `Cc1c(C#N)c2nnn(-c3ccccc3)c(=O)n2c1-c1ccccc1` the TGI [1] was greater than 39.4 µM, the TGI [2] was greater than 100 µM and the TGI [3] was greater than 77.6 µM. The TGI [4] was 13.2 µM, the TGI [5] was greater than 24.2 µM and the TGI [6] was greater than 25.1 µM. The TGI [7] was greater than 66.6 µM, the TGI [8] was 0.801 µM and the TGI [9] was greater than 100 µM. It also gave a TGI [10] of 16.5 µM, a TGI [11] greater than 34.5 µM and a TGI [12] greater than 100 µM. It also gave a TGI [13] of 3.41 µM, a TGI [14] greater than 100 µM and a TGI [15] greater than 76.6 µM. For the same compound, the TGI [16] was 14.6 µM, the TGI [17] was greater than 20.7 µM and the TGI [18] was greater than 100 µM. It also gave a TGI [19] greater than 100 µM, a TGI [20] greater than 100 µM and a TGI [21] greater than 100 µM. It also gave a TGI [22] greater than 29.5 µM, a TGI [23] of 18.2 µM and a TGI [24] of 8.53 µM. For the same compound, the TGI [25] was 87.4 µM, the TGI [26] was 19.3 µM and the TGI [27] was greater than 100 µM. For the same compound, the TGI [28] was greater than 45.8 µM, the TGI [29] was greater than 100 µM and the TGI [30] was greater than 35.6 µM. The TGI [31] was greater than 100 µM, the TGI [32] was greater than 100 µM and the TGI [33] was greater than 100 µM. For the same compound, the TGI [34] was greater than 72.9 µM, the TGI [35] was greater than 56.8 µM and the TGI [36] was greater than 100 µM. For the same compound, the TGI [37] was greater than 100 µM, the TGI [38] was greater than 100 µM and the TGI [39] was greater than 100 µM. It also gave a TGI [40] greater than 100 µM, a TGI [41] of 30.5 µM and a TGI [42] of 14.8 µM. For the same compound, the TGI [43] was 8.45 µM, the TGI [44] was 30.1 µM and the TGI [45] was 29.1 µM. It also gave a TGI [46] greater than 100 µM, a TGI [47] greater than 100 µM and a TGI [48] greater than 100 µM. The TGI [49] was greater than 100 µM, the TGI [50] was greater than 100 µM and the TGI [51] was 16.2 µM. It also gave a TGI [52] greater than 100 µM and a TGI [53] greater than 100 µM.
With `COc1cc2c(cc1C)NC(=O)/C2=C\c1ccncc1` the TGI [1] was 30 µM, the TGI [2] was greater than 100 µM and the TGI [3] was 9.28 µM. The TGI [4] was 5.09 µM, the TGI [54] was greater than 100 µM and the TGI [5] was 13.4 µM. It also gave a TGI [7] of 11.4 µM, a TGI [8] greater than 100 µM and a TGI [9] of 22.8 µM. For the same compound, the TGI [10] was 8.47 µM, the TGI [11] was 25.8 µM and the TGI [13] was greater than 100 µM. For the same compound, the TGI [14] was 18.6 µM, the TGI [55] was greater than 100 µM and the TGI [15] was 41.7 µM. The TGI [16] was 10.7 µM, the TGI [17] was greater than 100 µM and the TGI [56] was 20 µM. It also gave a TGI [18] of 21.4 µM, a TGI [19] of 16.5 µM and a TGI [20] of 18.3 µM. The TGI [21] was 5.92 µM, the TGI [22] was 13.7 µM and the TGI [23] was 33.7 µM. It also gave a TGI [24] of 19.1 µM, a TGI [25] of 16.8 µM and a TGI [26] of 8.04 µM. The TGI [27] was greater than 100 µM, the TGI [28] was 66.5 µM and the TGI [29] was 21.6 µM. It also gave a TGI [30] of 12.9 µM, a TGI [31] of 20.2 µM and a TGI [32] of 6.94 µM. For the same compound, the TGI [34] was 10.1 µM, the TGI [35] was 20.9 µM and the TGI [36] was greater than 100 µM. The TGI [37] was 16 µM, the TGI [38] was 32.1 µM and the TGI [57] was 9.53 µM. For the same compound, the TGI [39] was 21.1 µM, the TGI [40] was greater than 100 µM and the TGI [43] was 53.6 µM. It also gave a TGI [44] of 18.8 µM, a TGI [45] of 12.5 µM and a TGI [46] of 56.9 µM. The TGI [47] was 8.1 µM, the TGI [48] was 29.1 µM and the TGI [49] was 84.3 µM. It also gave a TGI [58] of 8.45 µM, a TGI [51] of 10.3 µM and a TGI [52] of 26.7 µM.
For `N=C(N)c1ccc(-c2ccc(-c3ccc(Cl)cc3)s2)nc1`, the GI50 [56] was 1.65 µM, the TGI [56] was 3.02 µM and the GI50 [22] was 3.56 µM. It also gave a TGI [22] of 18.1 µM, a GI50 [25] of 1.82 µM and a TGI [25] of 4.49 µM. For the same compound, the GI50 [31] was 1.65 µM, the TGI [31] was 3 µM and the GI50 [33] was 1.35 µM. The TGI [33] was 2.74 µM, the GI50 [34] was 2.21 µM and the TGI [34] was 4.89 µM. It also gave a GI50 [36] of 1.64 µM, a TGI [36] of 3.06 µM and a GI50 [43] of 1.7 µM. The TGI [43] was 3.07 µM, the GI50 [48] was 1.56 µM and the TGI [48] was 2.9 µM. For the same compound, the GI50 [49] was 1.62 µM and the TGI [49] was 2.97 µM.
